# pIC50: −log10 of the molar value.
# Experiments:
# [1] = target: T1, NADP-dependent malic enzyme, mitochondrial (Homo sapiens, UniProt Q16798)
# T1 sequence (Q16798 whole entry): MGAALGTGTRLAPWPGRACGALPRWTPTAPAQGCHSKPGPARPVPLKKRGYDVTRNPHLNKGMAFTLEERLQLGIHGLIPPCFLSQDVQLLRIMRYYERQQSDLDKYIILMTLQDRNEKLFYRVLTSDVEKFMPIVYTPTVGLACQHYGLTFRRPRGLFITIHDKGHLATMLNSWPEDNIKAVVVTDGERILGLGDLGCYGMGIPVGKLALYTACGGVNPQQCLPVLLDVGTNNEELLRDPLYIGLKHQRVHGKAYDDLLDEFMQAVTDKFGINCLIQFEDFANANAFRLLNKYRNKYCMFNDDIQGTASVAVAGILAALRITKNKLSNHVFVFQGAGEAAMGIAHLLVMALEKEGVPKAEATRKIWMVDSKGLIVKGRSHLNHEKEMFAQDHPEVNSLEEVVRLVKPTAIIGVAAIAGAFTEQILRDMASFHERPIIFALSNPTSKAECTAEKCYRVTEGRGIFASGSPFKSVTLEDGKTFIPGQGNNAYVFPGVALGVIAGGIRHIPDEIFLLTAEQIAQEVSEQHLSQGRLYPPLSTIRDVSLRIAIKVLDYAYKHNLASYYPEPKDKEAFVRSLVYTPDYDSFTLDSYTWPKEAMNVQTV
# Description: Inhibition of His-tagged human recombinant ME3 (26 to 604 residues) using L-malate and beta-NADP+ as substrate preincubated with enzyme for 5 mins followed by beta-NADP+ challenge and incubated under shaking for 5 mins followed by incubation for 3 hrs without shaking by resorufin dye based fluorescence analysis
# [2] = target: T2, NADP-dependent malic enzyme (Homo sapiens, UniProt P48163); assay: (§1) Inhibition of His-tagged human recombinant full length ME1 using L-malate and beta-NADP+ as substrate preincubated with enzyme for 5 mins followed by beta-NADP+ challenge and incubated under shaking for 5 mins followed by incubation for 2 hrs without shaking by resorufin dye based fluorescence analysis; conditions: read-out: IC50
# T2 sequence (P48163 whole entry): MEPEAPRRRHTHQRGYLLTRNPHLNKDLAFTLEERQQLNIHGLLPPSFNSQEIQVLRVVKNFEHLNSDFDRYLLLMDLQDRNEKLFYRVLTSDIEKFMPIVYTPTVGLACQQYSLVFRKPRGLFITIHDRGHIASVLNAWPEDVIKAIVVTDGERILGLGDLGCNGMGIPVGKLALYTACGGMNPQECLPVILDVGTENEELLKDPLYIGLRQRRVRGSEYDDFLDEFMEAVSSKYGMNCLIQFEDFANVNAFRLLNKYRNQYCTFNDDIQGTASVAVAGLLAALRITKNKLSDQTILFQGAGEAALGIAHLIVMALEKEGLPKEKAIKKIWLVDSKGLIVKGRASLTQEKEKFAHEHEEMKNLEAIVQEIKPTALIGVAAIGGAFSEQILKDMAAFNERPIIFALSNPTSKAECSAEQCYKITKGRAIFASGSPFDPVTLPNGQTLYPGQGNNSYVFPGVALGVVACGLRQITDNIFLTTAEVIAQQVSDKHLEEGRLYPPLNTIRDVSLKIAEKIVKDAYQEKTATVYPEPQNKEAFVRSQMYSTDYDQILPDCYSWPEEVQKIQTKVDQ
# [3] = Selectivity for SMAD4/ME2-null human BXPC-3 cells over human HCE-T cells
# [4] = target: NAD-dependent malic enzyme, mitochondrial (Homo sapiens, UniProt P23368); assay: as §1, with “ME2” for “ME1”, “beta-NAD+” for “beta-NADP+”; conditions: read-out: IC50
# [5] = tested on: BXPC-3; assay: cells; conditions: Homo sapiens, BXPC-3, 72 h, read-out: INH
# Description: Antiproliferative activity against SMAD4/ME2-null human BXPC-3 cells assessed as inhibition of cell growth at 10 uM incubated for 72 hrs by CellTiter-Glo luminescence assay
# [6] = tested on: BXPC-3; assay: cells; conditions: Homo sapiens, BXPC-3, 72 h
# Description: Antiproliferative activity against SMAD4/ME2-null human BXPC-3 cells assessed as inhibition of cell growth incubated for 72 hrs by CellTiter-Glo luminescence assay
# [7] = Cytotoxicity against human HCE-T cells assessed as inhibition of cell growth; format: toxicity, cell-based
# [8] = Lipophilicity, log P of the compound; format: physicochemical; conditions: octanol/water
# [9] = tested on: BXPC-3; assay: Antiproliferative activity against SMAD4/ME2-null human BXPC-3 cells assessed as inhibition of cell growth at 1 uM incubated for 72 hrs by CellTiter-Glo luminescence assay; format: functional
# [10] = target: T3, NADP-dependent malic enzyme, mitochondrial (Homo sapiens) (UniProt Q16798); conditions: dose 0.1 µM, time 190.0 min
# T3 sequence (whole entry): T1 sequence (Q16798 whole entry)
# [11] = tested on: HUVEC; assay: Cytotoxicity against human HUVEC cells assessed as inhibition of cell growth; format: toxicity, cell-based
# [12] = target: T3, NADP-dependent malic enzyme, mitochondrial (Homo sapiens); conditions: BXPC-3, dose 100.0 µM, time 24.0 hrs
# [13] = target: T3, NADP-dependent malic enzyme, mitochondrial (Homo sapiens); conditions: BXPC-3, Lysates, dose 100.0 µM, time 2.0 hrs
# Sequence of NAD-dependent malic enzyme, mitochondrial (P23368 whole entry): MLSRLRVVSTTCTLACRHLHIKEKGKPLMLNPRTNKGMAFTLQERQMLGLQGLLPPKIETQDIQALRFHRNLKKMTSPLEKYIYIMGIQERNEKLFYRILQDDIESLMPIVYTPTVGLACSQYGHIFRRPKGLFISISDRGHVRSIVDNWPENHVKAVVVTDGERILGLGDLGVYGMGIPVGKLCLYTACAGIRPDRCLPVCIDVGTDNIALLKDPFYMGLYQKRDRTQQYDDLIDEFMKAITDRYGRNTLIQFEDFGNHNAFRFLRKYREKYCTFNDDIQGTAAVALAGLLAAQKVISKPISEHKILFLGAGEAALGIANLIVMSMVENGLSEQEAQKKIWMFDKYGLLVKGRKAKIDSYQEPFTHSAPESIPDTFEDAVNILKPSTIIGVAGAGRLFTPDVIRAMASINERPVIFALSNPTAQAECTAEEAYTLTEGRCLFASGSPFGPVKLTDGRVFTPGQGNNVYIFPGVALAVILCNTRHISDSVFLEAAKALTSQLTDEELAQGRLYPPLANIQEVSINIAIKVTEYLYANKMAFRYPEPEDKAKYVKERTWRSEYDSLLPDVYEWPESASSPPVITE
pIC50 [1],pIC50 [2],pIC50 [4],pIC50 [6],logP [8],inhibition [10],ΔTm [12],ΔTm [13],Compound,Selectivity ratio [3],inhibition at 10 µM [5],pIC50 [7],inhibition at 1 µM [9],Activity [11]
–,–,–,–,–,0%,–,–,Oc1ccc(N2CCN(CC3CC3)CC2)nc1,–,0%,–,0%,–
5.25,4.99,5.55,–,–,–,–,–,O=C(O)c1cc2ccccc2c(Cc2cc3ccccc3c(C(=O)O)c2O)c1O,–,–,–,–,–
4.68,6.66,6.70,–,–,–,–,–,O=C(Nc1nnn[nH]1)C1c2ccccc2OC2C=CC=CC21 (centres undefined),–,–,–,–,–
6.96,6.70,6.66,4.51,–,–,–,–,O=C(Nc1ccccc1)N1CCN(c2ccc(O)cc2)CC1,5,28%,–,–,–
6.85,5.99,5.80,5.20,–,–,–,–,O=C(CCc1ccc(Cl)cc1)N1CCN(c2ccc(O)cn2)CC1,5,71%,< 4.52,–,–
6.64,5.82,5.76,5.29,–,–,4.9 °C,7 °C,O=C(CCc1ccccc1)N1CCN(c2ccc(O)cn2)CC1,5,90%,< 4.52,–,Non-Toxic
7.00,6.57,6.57,5.44,–,–,–,–,O=C(CCc1ccccc1)N1CCN(c2ccc(O)cc2)CC1,5,93%,< 4.52,–,–

# The next lines start with the compound.
Compound,pIC50 [1],pIC50 [2],pIC50 [4],pIC50 [6],logP [8],inhibition [10],ΔTm [12],ΔTm [13],Selectivity ratio [3],inhibition at 10 µM [5],pIC50 [7],inhibition at 1 µM [9],Activity [11]
CCCCOc1ccc(CCC(=O)N2CCN(c3ccc(O)cc3)CC2)cc1,7.22,6.38,6.46,–,–,–,–,–,5,29%,–,–,–
CC(C)(CC(=O)N1CCN(c2ccc(O)cn2)CC1)c1ccccc1,6.82,5.63,5.86,5.46,3.41,–,–,–,5,99%,< 4.52,–,–
CC(C)CN1CCN(c2ccc(O)cn2)CC1,–,–,–,–,–,0%,–,–,–,6%,–,0%,–
Oc1ccc(N2CCNCC2)nc1,–,–,–,–,–,0%,–,–,–,12%,–,2%,–
COCCOc1ccc(CCC(=O)N2CCN(c3ccc(O)cn3)CC2)cc1,6.24,5.46,5.59,–,–,–,–,–,5,3%,–,–,–
CC(=O)N1CCN(c2ccc(O)cn2)CC1,–,–,–,–,–,23%,–,–,–,0%,–,0%,–
O=C(CCc1cc2ccccc2s1)N1CCN(c2ccc(O)cn2)CC1,6.62,5.92,5.79,–,–,–,–,–,5,46%,–,–,–
O=C(Cc1ccccc1)N1CCN(c2ccc(O)cc2)CC1,7.00,6.74,6.72,5.22,–,–,–,–,5,80%,–,–,–
O=C(CN1CCN(c2ccc(O)cc2)CC1)Nc1ccccc1,6.96,6.47,6.44,–,–,–,–,–,5,18%,–,–,–
CC(C)(CC(=O)N1CCN(c2ccc(O)cc2)CC1)c1ccccc1,6.92,6.82,6.57,5.28,–,–,–,–,5,85%,< 4.52,–,Non-Toxic
CC(C)(CC(=O)N1CCN(c2ccc(O)cn2)CC1)c1ccc(F)cc1,6.51,5.89,5.95,5.23,–,–,–,–,5,100%,< 4.52,–,–
O=C(CCc1ccccc1)N1CCN(c2ccc(F)cn2)CC1,–,–,–,< 4.52,–,–,–,–,–,0%,–,–,–

# — ChEMBL document CHEMBL5223163, “In the Quest for Potent and Selective Malic Enzyme 3 Inhibitors for the Treatment of Pancreatic Ductal Adenocarcinoma” (ACS Med Chem Lett, 2023)
